Reference: US10660967B2, “Curcumin conjugates and methods of use thereof” (priority 2016, dated 2020)

Tested on: carrageenan induced paw edema
Experiment: Anti-inflammatory activity: acute carrageenan induced paw edema in rats
Format: in vivo, Wister rats
Conditions: 10 mg kg^−1 indomethacin mol equivalent; for % inhibition of edema / Mean edema thickness: intraperitoneally; for Mean edema thickness: mean ± SE; for Potency (% inhibition of edema relative to that of indomethacin reference standard): at 4 h effect
Experimental: The anti-inflammatory activity of the tested compounds was determined in vivo by the acute carrageenan induced paw edema standard method in rats. See, Naumov, et al., Bioorg. Med. Chem. Lett, 25: 2314-2320 (2015), Tiwari, et al., Org. Biomol. Chem, 12: 7238-7249 (2014), Girgis, et al., Eur. J. Med. Chem, 50: 1-8 (2012), Barsoum, et al., Eur. J. Med. Chem, 44: 2172-2177 (2009), Girgis, et al., Eur. J. Med. Chem, 44: 1972-1977 (2009), Girgis, et al., Eur. J. Med. Chem, 44: 1257-1264 (2009), Girgis, et al., Eur. J. Med. Chem, 44: 91-100 (2009), Girgis, et al., Eur. J. Med. Chem, 43: 2116-2121 (2008), Girgis, et al., Bioorg. Med. Chem, 14: 8527-8532 (2006), and Barsoum, et al., Bioorg. Med. Chem, 14: 3929-3937 (2006).
Adult Wister rats of either sex (pregnant female animals were excluded) weighing 120-150 g were divided into 18 groups of 6 animals each. […] The control group was given DMSO only. Carrageenan paw edema was induced by subcutaneous injection of freshly prepared 1% solution of carrageenan in saline (0.9%, 0.1 ml per rat) into subplantar tissue of the right hind paw of rats. The thickness of the paw was measured (in mm) after successive time intervals (1, 2,3,4 and 24 h) and compared with the initial hind paw thickness of each rat for determining the edema thickness. Data were collected, checked, revised and analyzed. Quantitative variables from normal distribution were expressed as means±SE “standard error”. The anti-inflammatory activity was expressed as percentage inhibition of edema thickness in treated animals in comparison with the control group according to eqn. (1)
Where, Vc and Vt are the mean of edema paw thickness for the control and tested compound treated animal groups, respectively.

Compound | % inhibition of edema (1 h) | Mean edema thickness (1 h) | % inhibition of edema (2 h) | Mean edema thickness (2 h) | % inhibition of edema (3 h) | Mean edema thickness (3 h) | % inhibition of edema (4 h) | Mean edema thickness (4 h) | % inhibition of edema (24 h) | Mean edema thickness (24 h) | Potency (% inhibition of edema relative to that of indomethacin reference standard)
COc1cc(/C=C/C(=O)CC(=O)/C=C/c2ccc(OC(=O)CCNC(=O)OC(C)(C)C)c(OC)c2)ccc1OC(=O)CCNC(=O)OC(C)(C)C [Compound 27] | 31% | 1.66 ± 0.19 mm | 33% | 1.38 ± 0.11 mm | 45% | 0.99 ± 0.12 mm | 61% | 0.55 ± 0.07 mm | 28% | 0.60 ± 0.03 mm | 70
COc1cc(/C=C/C(=O)CC(=O)/C=C/c2ccc(OC(=O)[C@H](CCSC)NC(=O)OC(C)(C)C)c(OC)c2)ccc1OC(=O)[C@H](CCSC)NC(=O)OC(C)(C)C [Compound 28] | 34% | 1.59 ± 0.21 mm | 36% | 1.31 ± 0.18 mm | 44% | 1.01 ± 0.17 mm | 88% | 0.17 ± 0.02 mm | 23% | 0.64 ± 0.05 mm | 101
COc1cc(/C=C/C(=O)CC(=O)/C=C/c2ccc(OC(=O)[C@@H](CCSC)NC(=O)OC(C)(C)C)c(OC)c2)ccc1OC(=O)[C@@H](CCSC)NC(=O)OC(C)(C)C [Compound 29] | 58% | 1.01 ± 0.14 mm | 69% | 0.63 ± 0.11 mm | 74% | 0.47 ± 0.08 mm | 89% | 0.15 ± 0.06 mm | 41% | 0.49 ± 0.09 mm | 102
COc1cc(/C=C/C(=O)CC(=O)/C=C/c2ccc(OC(=O)[C@@H](NC(=O)OC(C)(C)C)C(C)C)c(OC)c2)ccc1OC(=O)[C@@H](NC(=O)OC(C)(C)C)C(C)C [Compound 30] | 13% | 2.09 ± 0.21 mm | 24% | 1.57 ± 0.19 mm | 25% | 1.34 ± 0.11 mm | 43% | 0.80 ± 0.08 mm | 30% | 0.58 ± 0.10 mm | 49
CC[C@H](C)[C@H](NC(=O)OC(C)(C)C)C(=O)Oc1ccc(/C=C/C(=O)CC(=O)/C=C/c2ccc(OC(=O)[C@@H](NC(=O)OC(C)(C)C)[C@@H](C)CC)c(OC)c2)cc1OC [Compound 31] | 33% | 1.61 ± 0.11 mm | 38% | 1.27 ± 0.07 mm | 49% | 0.91 ± 0.05 mm | 51% | 0.69 ± 0.02 mm | 41% | 0.49 ± 0.03 mm | 59
COc1cc(/C=C/C(=O)CC(=O)/C=C/c2ccc(OC(=O)[C@H](CCC(N)=O)NC(=O)OC(C)(C)C)c(OC)c2)ccc1OC(=O)[C@H](CCC(N)=O)NC(=O)OC(C)(C)C [Compound 32] | 10% | 2.16 ± 0.17 mm | 16% | 1.73 ± 0.09 mm | 32% | 1.22 ± 0.12 mm | 41% | 0.83 ± 0.06 mm | 57% | 0.36 ± 0.02 mm | 47
COc1cc(/C=C/C(=O)CC(=O)/C=C/c2ccc(OC(=O)CN)c(OC)c2)ccc1OC(=O)CN.Cl.Cl [Compound 33] | 66% | 0.82 ± 0.09 mm | 67% | 0.69 ± 0.03 mm | 74% | 0.46 ± 0.03 mm | 88% | 0.17 ± 0.01 mm | 42% | 0.48 ± 0.03 mm | 101
COc1cc(/C=C/C(=O)CC(=O)/C=C/c2ccc(OC(=O)[C@@H](N)Cc3ccccc3)c(OC)c2)ccc1OC(=O)[C@@H](N)Cc1ccccc1.Cl.Cl [Compound 34] | 46% | 1.29 ± 0.14 mm | 51% | 1.01 ± 0.11 mm | 63% | 0.66 ± 0.08 mm | 84% | 0.22 ± 0.03 mm | 20% | 0.66 ± 0.04 mm | 97
COc1cc(/C=C/C(=O)CC(=O)/C=C/c2ccc(OC(=O)[C@H](C)N)c(OC)c2)ccc1OC(=O)[C@H](C)N.Cl.Cl [Compound 35] | 37% | 1.51 ± 0.12 mm | 42% | 1.19 ± 0.10 mm | 53% | 0.85 ± 0.09 mm | 66% | 0.47 ± 0.04 mm | 16% | 0.70 ± 0.06 mm | 76
COc1cc(/C=C/C(=O)CC(=O)/C=C/c2ccc(OC(=O)C(C)N)c(OC)c2)ccc1OC(=O)C(C)N.Cl.Cl (centres unmarked) [Compound 36] | 54% | 1.11 ± 0.08 mm | 54% | 0.94 ± 0.09 mm | 55% | 0.81 ± 0.05 mm | 84% | 0.22 ± 0.02 mm | 28% | 0.60 ± 0.06 mm | 97
COc1cc(/C=C/C(=O)CC(=O)/C=C/c2ccc(OC(=O)[C@@H](C)N)c(OC)c2)ccc1OC(=O)[C@@H](C)N.Cl.Cl [Compound 37] | 61% | 0.95 ± 0.11 mm | 62% | 0.79 ± 0.13 mm | 74% | 0.46 ± 0.09 mm | 96% | 0.06 ± 0.01 mm | 29% | 0.59 ± 0.07 mm | 110
COc1cc(/C=C/C(=O)CC(=O)/C=C/c2ccc(OC(=O)CCN)c(OC)c2)ccc1OC(=O)CCN.Cl.Cl [Compound 38] | 69% | 0.74 ± 0.09 mm | 71% | 0.60 ± 0.06 mm | 77% | 0.42 ± 0.03 mm | 89% | 0.16 ± 0.04 mm | 72% | 0.23 ± 0.01 mm | 102
COc1cc(/C=C/C(=O)CC(=O)/C=C/c2ccc(OC(=O)[C@@H](N)CCSC)c(OC)c2)ccc1OC(=O)[C@@H](N)CCSC.Cl.Cl [Compound 39] | 64% | 0.86 ± 0.13 mm | 70% | 0.62 ± 0.11 mm | 73% | 0.49 ± 0.07 mm | 97% | 0.04 ± 0.01 mm | 36% | 0.53 ± 0.03 mm | 111
